Source: PubChem BioAssay (NCI)
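Five compound concentrations were applied to cells in 96-well plates for 48 hours; endpoints were derived by simple linear interpolation of the resulting dose-response curve. At the TGI there is no net growth.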

What was measured:
Test in all cases: NCI tumour cell line growth inhibition, 48 h
[1] = tested on: SNB-78 CNS
[2] = tested on: HT29 colon
[3] = tested on: MALME-3M melanoma
[4] = tested on: OVCAR-8 ovarian
[5] = tested on: SK-MEL-5 melanoma
[6] = tested on: NCI-H226 lung
[7] = tested on: HCT-15 colon
[8] = tested on: RPMI-8226 leukemia
[9] = tested on: M19-MEL melanoma
[10] = tested on: LOX IMVI melanoma
[11] = tested on: KM20L2 colon
[12] = tested on: SNB-19 CNS
[13] = tested on: SN12C renal
[14] = tested on: SR leukemia
[15] = tested on: HOP-62 NSCLC
[16] = tested on: CCRF-CEM leukemia
[17] = tested on: 786-0 renal
[18] = tested on: SW-620 colon
[19] = tested on: NCI-H460 lung
[20] = tested on: HCT-116 colon
[21] = tested on: NCI-H522 lung
[22] = tested on: OVCAR-5 ovarian
[23] = tested on: SNB-75 CNS
[24] = tested on: SF-295 CNS
[25] = tested on: M14 melanoma
[26] = tested on: MOLT-4 leukemia
[27] = tested on: HL-60(TB) leukemia
[28] = tested on: ACHN renal
[29] = tested on: A549 NSCLC
[30] = tested on: SK-MEL-2 melanoma
[31] = tested on: DMS 114 small cell lung
[32] = tested on: K-562 leukemia
[33] = tested on: EKVX NSCLC
[34] = tested on: HCC-2998 colon
[35] = tested on: RXF-631 renal
[36] = tested on: NCI-H23 lung
[37] = tested on: OVCAR-4 ovarian
[38] = tested on: HOP-92 NSCLC
[39] = tested on: SK-MEL-28 melanoma
[40] = tested on: SK-OV-3 ovarian
[41] = tested on: A498 renal
[42] = tested on: UACC-62 melanoma
[43] = tested on: CAKI-1 renal
[44] = tested on: SF-539 CNS
[45] = tested on: KM12 colon
[46] = tested on: UO-31 renal
[47] = tested on: IGROV1 ovarian
[48] = tested on: U251 CNS
[49] = tested on: HOP-18 NSCLC
[50] = tested on: UACC-257 melanoma
[51] = tested on: COLO 205 colon
[52] = tested on: RXF 393 renal
[53] = tested on: LXFL 529 NSCLC
[54] = tested on: OVCAR-3 ovarian
[55] = tested on: SF-268 CNS
[56] = tested on: DMS 273 small cell lung
[57] = tested on: TK-10 renal
[58] = tested on: DLD-1 colon
[59] = tested on: XF 498 CNS

SMILES: Cc1cccc(C(C)C)c1NC(=O)C(=O)CC(=O)c1c(C)n([O-])c2ccccc2[n+]1=O
- TGI [1]: > 100 µM
- TGI [2]: > 100 µM
- TGI [3]: 44.1 µM
- TGI [4]: > 100 µM
- TGI [5]: > 100 µM
- TGI [6]: > 100 µM
- TGI [7]: 62.2 µM
- TGI [8]: 72.1 µM
- TGI [9]: 50.6 µM
- TGI [10]: > 100 µM
- TGI [11]: > 100 µM
- TGI [12]: > 100 µM
- TGI [13]: 96.7 µM
- TGI [14]: 78.5 µM
- TGI [15]: > 100 µM
- TGI [16]: 99.7 µM
- TGI [17]: > 100 µM
- TGI [18]: > 100 µM
- TGI [19]: 60 µM
- TGI [20]: > 100 µM
- TGI [21]: 53.9 µM
- TGI [22]: > 100 µM
- TGI [23]: 71.1 µM
- TGI [24]: > 100 µM
- TGI [25]: 95.3 µM
- TGI [26]: 59.8 µM
- TGI [27]: > 100 µM
- TGI [28]: > 100 µM
- TGI [29]: > 100 µM
- TGI [30]: 98.1 µM
- TGI [31]: 52.1 µM
- TGI [32]: > 100 µM
- TGI [33]: > 100 µM
- TGI [34]: > 100 µM
- TGI [35]: 67.4 µM
- TGI [36]: 51.3 µM
- TGI [37]: 95 µM
- TGI [38]: > 100 µM
- TGI [39]: > 100 µM
- TGI [40]: > 100 µM
- TGI [41]: > 100 µM
- TGI [42]: 42.4 µM
- TGI [43]: > 100 µM
- TGI [44]: 83.8 µM
- TGI [45]: > 100 µM
- TGI [46]: > 100 µM
- TGI [47]: > 100 µM
- TGI [48]: 95.9 µM
- TGI [49]: > 100 µM
- TGI [50]: 48 µM
- TGI [51]: 88.3 µM
- TGI [52]: > 100 µM
- TGI [53]: > 100 µM
- TGI [54]: 22 µM
- TGI [55]: > 100 µM
- TGI [56]: 99.2 µM
- TGI [57]: > 100 µM

SMILES: CC(C)(Br)C1(O)CCCN1C(=O)c1ccccc1 (stereo not given)
- TGI [1]: > 100 µM
- TGI [2]: > 100 µM
- TGI [3]: > 100 µM
- TGI [4]: > 100 µM
- TGI [5]: > 100 µM
- TGI [7]: > 100 µM
- TGI [9]: > 100 µM
- TGI [10]: > 100 µM
- TGI [58]: > 100 µM
- TGI [11]: > 100 µM
- TGI [12]: > 100 µM
- TGI [13]: > 100 µM
- TGI [14]: > 100 µM
- TGI [16]: > 100 µM
- TGI [18]: > 100 µM
- TGI [19]: > 100 µM
- TGI [20]: > 100 µM
- TGI [21]: > 100 µM
- TGI [22]: > 100 µM
- TGI [23]: > 100 µM
- TGI [24]: > 100 µM
- TGI [25]: > 100 µM
- TGI [26]: > 100 µM
- TGI [27]: > 100 µM
- TGI [28]: > 100 µM
- TGI [29]: > 100 µM
- TGI [30]: > 100 µM
- TGI [32]: > 100 µM
- TGI [33]: > 100 µM
- TGI [34]: > 100 µM
- TGI [35]: > 100 µM
- TGI [36]: > 100 µM
- TGI [38]: > 100 µM
- TGI [39]: > 100 µM
- TGI [40]: > 100 µM
- TGI [41]: > 100 µM
- TGI [42]: > 100 µM
- TGI [44]: > 100 µM
- TGI [45]: > 100 µM
- TGI [46]: > 100 µM
- TGI [47]: > 100 µM
- TGI [48]: > 100 µM
- TGI [49]: > 100 µM
- TGI [50]: > 100 µM
- TGI [51]: > 100 µM
- TGI [52]: > 100 µM
- TGI [53]: > 100 µM
- TGI [54]: > 100 µM
- TGI [55]: > 100 µM
- TGI [56]: > 100 µM
- TGI [57]: > 100 µM

SMILES: CN(C)CCCN1CCc2c([nH]c3ccccc23)C1c1cccnc1 (stereo not given)
- TGI [1]: > 100 µM
- TGI [2]: > 100 µM
- TGI [3]: > 100 µM
- TGI [4]: > 100 µM
- TGI [5]: > 100 µM
- TGI [6]: > 100 µM
- TGI [7]: > 100 µM
- TGI [8]: > 100 µM
- TGI [9]: > 100 µM
- TGI [10]: > 100 µM
- TGI [58]: > 100 µM
- TGI [11]: > 100 µM
- TGI [12]: > 100 µM
- TGI [13]: > 100 µM
- TGI [14]: > 100 µM
- TGI [15]: > 100 µM
- TGI [16]: > 100 µM
- TGI [17]: > 100 µM
- TGI [18]: > 100 µM
- TGI [19]: > 100 µM
- TGI [20]: > 100 µM
- TGI [21]: > 100 µM
- TGI [22]: > 100 µM
- TGI [23]: > 100 µM
- TGI [24]: > 100 µM
- TGI [25]: > 100 µM
- TGI [26]: > 100 µM
- TGI [27]: > 100 µM
- TGI [28]: > 100 µM
- TGI [29]: > 100 µM
- TGI [30]: > 100 µM
- TGI [31]: > 100 µM
- TGI [32]: > 100 µM
- TGI [33]: > 100 µM
- TGI [34]: > 100 µM
- TGI [35]: > 100 µM
- TGI [36]: > 100 µM
- TGI [37]: > 100 µM
- TGI [38]: > 100 µM
- TGI [39]: > 100 µM
- TGI [40]: > 100 µM
- TGI [41]: > 100 µM
- TGI [42]: > 100 µM
- TGI [43]: > 100 µM
- TGI [44]: > 100 µM
- TGI [45]: > 100 µM
- TGI [46]: > 100 µM
- TGI [47]: > 100 µM
- TGI [48]: > 100 µM
- TGI [50]: > 100 µM
- TGI [51]: > 100 µM
- TGI [52]: > 100 µM
- TGI [53]: > 100 µM
- TGI [54]: > 100 µM
- TGI [59]: > 100 µM
- TGI [56]: > 100 µM
- TGI [57]: > 100 µM
